Assay results taken from patent publication US8993585B2, “Cyclic amine substituted pyrimidinediamines as PKC inhibitors” (Rigel Pharmaceuticals, Inc., priority 2007, dated 2015).

Experiments:
PKC theta = target: T1, PKC theta (Homo sapiens, UniProt Q04759); experiment: PKC assay, fluorescence polarization (Example 2), PKC theta; type: biochemical; details: 5 μM ATP
T1 construct: purchased Upstate Biotechnologies, Temecula, CA 14-444
Protocol: (§1) The inhibition of PKC activity was measured by monitoring the production of phosphorylated peptide by fluorescence polarization at different concentrations of the inhibitor. Reactions were carried out in 96-well plate format with a total volume of 20 μL containing 20 mM HEPES, pH 7.4, 5 mM MgCl2, 0.2 mM CaCl2, 1 mM DTT, 0.02% Brij-35, 0.1 mg/mL phosphatidylserine, 0.02 mg/mL dioleoyl-sn-glycerol and 5 μM each of ATP and the peptide substrate. Compounds were first diluted serially in DMSO and then transferred to a solution containing the above concentrations of HEPES, MgCl2, CaCl2, DTT, and Brij-35 to yield 5× compound solutions in 2% DMSO, which was then added to the reaction solution. Reactions were initiated by the addition of PKC at a typical concentration as described in Table VI, and then allowed to incubate at room temperature for 20 min. At the end of this time, a combination of quench (EDTA) and detection (peptide tracer and antibody) reagents was added using the protocol of Invitrogen P2748.

PKC epsilon = target: T2, PKC epsilon (Homo sapiens, UniProt Q02156); experiment: PKC assay, fluorescence polarization (Example 2), PKC epsilon; type: biochemical; details: 5 μM ATP
T2 construct: purchased Upstate Biotechnologies, Temecula, CA 14-518
T2 sequence (Q02156 1-737): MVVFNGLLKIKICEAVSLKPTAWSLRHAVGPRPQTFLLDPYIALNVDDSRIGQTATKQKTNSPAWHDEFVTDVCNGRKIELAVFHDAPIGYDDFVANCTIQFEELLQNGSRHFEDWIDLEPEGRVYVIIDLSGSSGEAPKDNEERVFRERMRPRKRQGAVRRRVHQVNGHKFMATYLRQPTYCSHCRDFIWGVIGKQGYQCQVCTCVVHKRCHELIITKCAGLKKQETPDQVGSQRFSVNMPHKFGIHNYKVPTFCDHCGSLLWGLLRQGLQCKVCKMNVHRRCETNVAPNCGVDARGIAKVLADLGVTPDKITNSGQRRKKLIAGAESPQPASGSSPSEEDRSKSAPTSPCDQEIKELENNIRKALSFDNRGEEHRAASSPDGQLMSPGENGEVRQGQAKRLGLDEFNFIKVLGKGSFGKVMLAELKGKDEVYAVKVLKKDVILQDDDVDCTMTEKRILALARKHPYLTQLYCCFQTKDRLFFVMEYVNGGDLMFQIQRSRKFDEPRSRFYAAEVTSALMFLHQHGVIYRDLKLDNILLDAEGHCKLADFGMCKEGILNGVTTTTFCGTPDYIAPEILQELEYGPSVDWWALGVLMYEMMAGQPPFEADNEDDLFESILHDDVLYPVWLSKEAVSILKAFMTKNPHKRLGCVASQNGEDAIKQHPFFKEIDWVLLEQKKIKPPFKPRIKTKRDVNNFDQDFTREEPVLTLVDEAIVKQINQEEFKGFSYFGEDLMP
Protocol: as §1

Human primary T cells = experiment: IL-2 ELISA, Human Primary T Cell, Anti-CD3+CD28+ (Example 3); type: cell-based; details: anti-CD3+CD28 stimulation
Procedure, shortened: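 IL-2 was read by ELISA after stimulation on wells pre-coated with 1 ug/ml αCD3 and 5 μg/ml αCD28. Before this, 100,000 human primary T cells per well spent 1 h at 37 °C with test compound in Yssel's medium. The counter-screen replaced antibody stimulation with PMA (0.5 ng/ml final) and ionomycin (0.1 uM final).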

T1 sequence (Q04759 whole entry): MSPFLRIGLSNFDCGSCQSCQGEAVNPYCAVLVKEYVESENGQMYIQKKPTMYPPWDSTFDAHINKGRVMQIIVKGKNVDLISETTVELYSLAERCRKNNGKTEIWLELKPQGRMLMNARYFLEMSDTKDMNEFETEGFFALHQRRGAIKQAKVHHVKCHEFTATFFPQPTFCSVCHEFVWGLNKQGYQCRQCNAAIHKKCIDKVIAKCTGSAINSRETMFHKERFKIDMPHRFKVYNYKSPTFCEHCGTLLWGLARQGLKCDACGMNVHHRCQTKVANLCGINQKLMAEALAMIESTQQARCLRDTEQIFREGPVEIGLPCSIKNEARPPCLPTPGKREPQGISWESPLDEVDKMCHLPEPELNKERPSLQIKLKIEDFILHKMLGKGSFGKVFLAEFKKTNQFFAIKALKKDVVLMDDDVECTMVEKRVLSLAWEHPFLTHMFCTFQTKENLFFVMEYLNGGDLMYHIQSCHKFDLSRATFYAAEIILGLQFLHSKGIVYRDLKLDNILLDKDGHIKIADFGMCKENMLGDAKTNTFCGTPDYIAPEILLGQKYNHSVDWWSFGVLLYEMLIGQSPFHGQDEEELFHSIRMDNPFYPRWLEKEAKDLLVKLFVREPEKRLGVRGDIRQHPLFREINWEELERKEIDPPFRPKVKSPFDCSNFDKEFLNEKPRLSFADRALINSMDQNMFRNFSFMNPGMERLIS

SMILES	IC50 (PKC theta) [µM]	IC50 (PKC epsilon) [µM]	IC50 (Human primary T cells; Homo sapiens, T-cell, 24 h) [µM]	IC50 (Human primary T cells; 24 hours) [µM]
CN1C(C)(C)CC(Nc2nc(Nc3ccc(-n4cccc4)c(C#N)c3)ncc2F)CC1(C)C [Compound I-148]	0.0135	0.15	0.223	–
CN1C(C)(C)CC(Nc2nc(Nc3ccc(-n4cccc4)c(C#N)c3)ncc2Cl)CC1(C)C [Compound I-167]	0.00387	0.197	0.227	–
CN1C(C)(C)CC(Nc2nc(Nc3ccc(CN4CCOCC4)c(C#N)c3)ncc2F)CC1(C)C [Compound I-450]	0.0025	0.009	–	0.26
COc1cc(Nc2ncc(C#N)c(NC3CC(C)(C)N(C)C(C)(C)C3)n2)cc(-n2nnnc2C)c1 [Compound I-365]	0.00062	0.00734	0.0566	–
CN1C(C)(C)CC(Nc2nc(Nc3ccc4ncccc4c3)ncc2F)CC1(C)C [II-1]	0.00966	0.144	0.612	–
COc1cc(Nc2ncc(F)c(NC3CC(C)(C)N(C)C(C)(C)C3)n2)cc(-n2cnnn2)c1 [Compound I-342]	0.00095	0.00157	0.0318	–
CN1C(C)(C)CC(Nc2nc(Nc3cccc(OC(F)(F)F)c3)ncc2F)CC1(C)C [Compound I-223]	0.0317	0.119	0.184	–
CC1(C)CC(Nc2nc(Nc3ccc4c(c3)OCC(=O)N4CCF)ncc2C#N)CC(C)(C)N1 [II-171]	0.0024	0.775	0.26	–
CCN1C(=O)C(F)(F)Oc2cc(Nc3ncc(F)c(NC4CC(C)(C)N(C)C(C)(C)C4)n3)ccc21 [II-31]	0.00135	0.0271	0.0264	–
CN1C(=O)C(F)(F)Oc2cc(Nc3ncc(F)c(NC4CC(C)(C)N(C)C(C)(C)C4)n3)ccc21 [II-8]	0.00243	0.0579	0.09	–
CC1(C)CC(Nc2nc(Nc3cccc(-c4nn[nH]n4)c3)ncc2F)CC(C)(C)N1 [Compound I-471]	–	0.982	–	–
Cc1cc(Nc2ncc(F)c(NC3CC(C)(C)N(C)C(C)(C)C3)n2)cnc1N1CCN(C)CC1 [Compound I-7]	0.016	–	0.53	–
CN1C(C)(C)CC(Nc2nc(Nc3ccc(-c4cccnc4)cc3)ncc2F)CC1(C)C [Compound I-124]	0.0557	–	0.54	–
CN1CCN(c2ccc(Nc3ncc(C#N)c(NC4CC(C)(C)N(C)C(C)(C)C4)n3)cc2C(F)(F)F)CC1 [Compound I-94]	0.0117	–	0.443	–
CN1C(C)(C)CC(Nc2nc(Nc3cccc(-c4cnco4)c3)ncc2F)CC1(C)C [Compound I-100]	0.0344	–	0.494	–
CN1C(C)(C)CC(Nc2nc(Nc3ccc(-c4cnn(C)c4)c(Cl)c3)ncc2F)CC1(C)C [Compound I-157]	0.0031	–	0.242	–
CN1C(C)(C)CC(Nc2nc(Nc3cccc(-c4nn[nH]n4)c3)ncc2F)CC1(C)C [Compound I-470]	0.698	0.941	–	–
CN1C(C)(C)CC(Nc2nc(Nc3ccc(-c4ccoc4)c(C(F)(F)F)c3)ncc2F)CC1(C)C [Compound I-328]	0.0457	–	0.288	–
CC1(C)CC(Nc2nc(Nc3cccc(C#N)c3)ncc2F)CC(C)(C)N1 [Compound I-70]	0.0387	–	0.517	–
CN1C(C)(C)CC(Nc2nc(Nc3ccc(Br)c(C(F)(F)F)c3)ncc2F)CC1(C)C [Compound I-109]	0.107	–	0.345	–
CN1C(C)(C)CC(Nc2nc(Nc3ccc(-c4ccncc4)c(F)c3)ncc2F)CC1(C)C [Compound I-115]	0.0219	–	0.287	–
CN1CCN(c2ccc(Nc3ncc(Cl)c(NC4CC(C)(C)N(C)C(C)(C)C4)n3)cc2C#N)CC1 [Compound I-179]	0.00149	–	0.0922	–
CN1C(C)(C)CC(Nc2nc(Nc3ccc(C#N)c(Cl)c3)ncc2Cl)CC1(C)C [Compound I-35]	0.024	–	0.145	–
